This passage reports TGI and GI50 results from PubChem BioAssay (NCI).

Test systems include SF-268 CNS; IGROV1 ovarian; M19-MEL melanoma; OVCAR-5 ovarian; KM20L2 colon; NCI-H226 lung; SK-MEL-5 melanoma; M14 melanoma; SF-295 CNS; NCI-H460 lung.
Assay in all cases: DTP human tumour cell line panel, 48 h

By TGI is commonly meant the concentration at which net growth stops. Low readings indicate more potent growth arrest, high ones less potent growth arrest. As usually defined, the GI50 is the concentration giving 50% growth inhibition.

Where “and” joins values, the source holds several entries; their conditions need not be identical. Equal values may be shown once.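 Five compound concentrations were applied to cells in 96-well plates for 48 hours; endpoints were derived by simple linear interpolation of the resulting dose-response curve. The concentration for 50% growth inhibition is given as GI50. TGI: concentration producing complete growth inhibition.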

Consider `OCC(O)C(O)C(O)C1SC(c2ccccc2)=NN1c1ccccc1` (stereo unspecified), for which the TGI in the test with SF-268 CNS is over 97.3 µM; in the test with IGROV1 ovarian, over 100 µM; in the test on M19-MEL melanoma, over 100 µM; in the test on OVCAR-5 ovarian, over 100 µM; in the test with KM20L2 colon, over 100 µM; in the test with NCI-H226 lung it was over 100 µM. Further, the TGI in the test with SK-MEL-5 melanoma, with M14 melanoma, with SF-295 CNS and with NCI-H460 lung was over 100 µM in each case.
Regarding `COC1/C=C\C=C(/C)C(=O)Nc2cc3nc4ccc(Br)cc4oc-3c(c2=O)CC(C)CC(OC)C(O)C(C)/C=C(\C)C1OC(N)=O` (stereo unspecified), the TGI in the test on SF-268 CNS came to 18.1 µM; in the test on IGROV1 ovarian, 19.2 µM; with M19-MEL melanoma, 2.26 µM; in the test on OVCAR-5 ovarian it was 5.88 µM; in the test on KM20L2 colon, 3.65 µM; with NCI-H226 lung, 17.7 µM. The TGI with SK-MEL-5 melanoma is 9.44 µM; in the test on M14 melanoma, 5.33 µM; in the test with SF-295 CNS, 25.8 µM; in the test on NCI-H460 lung, 17.9 µM. Also, the GI50 with IGROV1 ovarian is 0.00312 µM; in the test on OVCAR-5 ovarian it was 0.00434 µM; with M14 melanoma it was 0.00414 µM; in the test with NCI-H460 lung, 0.00446 µM.
Take `N#CCc1ccc(C(C#N)/C(CCCC(=O)Nc2cccc([N+](=O)[O-])c2)=N\NC(=O)NN)cc1` (stereo unspecified): the concentration for total growth inhibition (TGI) in the test on SF-268 CNS, in the test on IGROV1 ovarian, with M19-MEL melanoma, in the test on OVCAR-5 ovarian, in the test with KM20L2 colon and in the test with NCI-H226 lung was over 100 µM in each case. Moreover, the TGI in the test with SK-MEL-5 melanoma, in the test on M14 melanoma, in the test with SF-295 CNS and with NCI-H460 lung was over 100 µM throughout.
Regarding `C1CNCCNCCNCCN1`, the TGI in the test with IGROV1 ovarian, in the test with M19-MEL melanoma, in the test with OVCAR-5 ovarian, in the test with KM20L2 colon, with NCI-H226 lung and in the test with SK-MEL-5 melanoma was over 100 µM throughout. Moreover, the concentration for total growth inhibition (TGI) in the test on M14 melanoma, in the test on SF-295 CNS and in the test with NCI-H460 lung was over 100 µM each time.
As for `O=C1CCCCCCCCCCC(=O)C2CCOCCOCCOCCC1Cc1cccc(n1)C2`, the TGI in the test on SF-268 CNS, in the test on IGROV1 ovarian, in the test on M19-MEL melanoma, in the test with KM20L2 colon, in the test on NCI-H226 lung and with SK-MEL-5 melanoma was over 100 µM throughout. Further, the TGI with M14 melanoma, in the test on SF-295 CNS and in the test on NCI-H460 lung was over 100 µM each time.
With `CC(=O)NC1=C(Nc2ccc(C)cc2)C(=O)c2ccccc2C1=O`, the TGI was over 75 µM in the test with SF-268 CNS; 50.8 µM in the test with IGROV1 ovarian; 17.5 µM with M19-MEL melanoma; 27.4 µM in the test on OVCAR-5 ovarian; over 75 µM in the test on KM20L2 colon; 42.5 µM with NCI-H226 lung. The concentration for total growth inhibition (TGI) in the test on SK-MEL-5 melanoma came to 20.4 µM; with M14 melanoma, 25.3 µM; with SF-295 CNS, 54.7 µM; with NCI-H460 lung, 22.9 µM.
As for `O=[N+]([O-])c1ccc(Sc2c3ccccc3nc3ccccc23)cc1`, the TGI in the test on SF-268 CNS, in the test with IGROV1 ovarian, with M19-MEL melanoma, with OVCAR-5 ovarian, in the test with KM20L2 colon and in the test with NCI-H226 lung was over 100 µM in each case. Further, the TGI with SK-MEL-5 melanoma, in the test with M14 melanoma, in the test with SF-295 CNS and in the test with NCI-H460 lung was over 100 µM in each case.
For the compound `NCCCN(CCCN)CCCNCc1c2ccccc2c(CNCCCN(CCCN)CCCN)c2ccccc12`, the TGI in the test on SF-268 CNS is 57.7 µM; in the test with IGROV1 ovarian, 28.1 µM; in the test with M19-MEL melanoma, 20.4 µM; with OVCAR-5 ovarian it was over 100 µM; with KM20L2 colon, 47.8 µM; in the test with NCI-H226 lung it was over 100 µM. Further, the TGI in the test with SK-MEL-5 melanoma is 17.9 µM; in the test with M14 melanoma, 28.5 µM; with SF-295 CNS, 27.8 µM; in the test with NCI-H460 lung, 29.2 µM.
For `S=c1[nH]c(=S)c2sc(=S)n(-c3ccccc3)c2[nH]1`, the TGI in the test on SF-268 CNS, in the test with IGROV1 ovarian, with M19-MEL melanoma, with OVCAR-5 ovarian, in the test with KM20L2 colon and in the test with NCI-H226 lung was over 100 µM each time. In addition, the TGI with SK-MEL-5 melanoma, in the test on M14 melanoma, with SF-295 CNS and in the test on NCI-H460 lung was over 100 µM each time.
Regarding `CC1Cc2c(N)nc(NN)nc2NC1=O` (stereo unspecified), the TGI in the test with IGROV1 ovarian, in the test with M19-MEL melanoma, with KM20L2 colon, with NCI-H226 lung, in the test with SK-MEL-5 melanoma and in the test with M14 melanoma was over 100 µM in each case. The TGI in the test on SF-295 CNS and in the test on NCI-H460 lung was over 100 µM in each case.
Take `CCOc1cc2c(cnc3c4cc(OC)c(OC)cc4ccc23)cc1OC`: the TGI with SF-268 CNS, with IGROV1 ovarian, in the test with M19-MEL melanoma, with OVCAR-5 ovarian, with KM20L2 colon and in the test with SK-MEL-5 melanoma was over 100 µM each time. The TGI with M14 melanoma, in the test with SF-295 CNS and with NCI-H460 lung was over 100 µM each time.
For the compound `COC1/C(=C\C(=O)OC(C)(C)C)c2ccccc2N1C(C)=O` (stereo unspecified), the TGI in the test with IGROV1 ovarian, in the test with M19-MEL melanoma, with KM20L2 colon, in the test on M14 melanoma, in the test on SF-295 CNS and with NCI-H460 lung was over 100 µM in each case.
As for `Cc1cccc(C)c1NC(=O)/C(Cl)=C(/Cl)C(=O)O`, the TGI with SF-268 CNS is 32.6 µM; in the test with IGROV1 ovarian, 40.8 µM; in the test on M19-MEL melanoma, 43.7 µM; in the test on OVCAR-5 ovarian it was 40.6 µM; in the test on KM20L2 colon, 20.8 µM; in the test with NCI-H226 lung, 27.4 µM. The TGI with SK-MEL-5 melanoma was 34.5 µM; with M14 melanoma it was 12.6 µM; with SF-295 CNS, over 56.1 µM; in the test on NCI-H460 lung, over 69.9 µM.
With `Clc1ccc(-n2nnc(C3=NCCCN3)c2-c2ccccc2)cc1`, the TGI with SF-268 CNS, in the test with IGROV1 ovarian, in the test with M19-MEL melanoma, in the test on OVCAR-5 ovarian, in the test on KM20L2 colon and in the test with NCI-H226 lung was over 100 µM in each case. In addition, the TGI with SK-MEL-5 melanoma, with M14 melanoma, in the test on SF-295 CNS and with NCI-H460 lung was over 100 µM throughout.
Turning to `CC(C)=CC(=O)Oc1ccc([N+](=O)[O-])cc1`, the TGI in the test on SF-268 CNS, in the test with IGROV1 ovarian, in the test on M19-MEL melanoma, in the test with OVCAR-5 ovarian, with KM20L2 colon and with NCI-H226 lung was over 100 µM throughout. Also, the TGI in the test with SK-MEL-5 melanoma, in the test on M14 melanoma, in the test on SF-295 CNS and in the test on NCI-H460 lung was over 100 µM throughout.
Take `CC(=O)OCC1OC(OC2CC3C(C)(C)C(OC(C)=O)CC[C@]3(C)C3CCC45CC4(CC[C@H]5C(C)CC(O)[C@@H](O)C(C)(C)O)[C@]23C)C(O)C(O)C1O` (stereo partly specified): the GI50 is 15.4 µM in the test with SF-268 CNS; 4.63 µM in the test on IGROV1 ovarian; 3.18 µM in the test with M19-MEL melanoma; 14.6 µM with OVCAR-5 ovarian; 4.97 µM in the test on M14 melanoma; 4.41 µM with SF-295 CNS. Also, the GI50 in the test on NCI-H460 lung is 6.88 µM. Besides, the TGI was 14.6 µM and 28.8 µM in the test with SF-268 CNS; 13.7 µM and 14.4 µM in the test with IGROV1 ovarian; 13.7 µM and 12.7 µM with M19-MEL melanoma; 13.9 µM and 27.9 µM in the test with OVCAR-5 ovarian; 14.4 µM and 21.6 µM in the test with KM20L2 colon; 13.3 µM in the test with NCI-H226 lung. The TGI in the test with SK-MEL-5 melanoma is 13.2 µM and 19.7 µM; in the test with M14 melanoma it was 13.1 µM and 16.6 µM; in the test on SF-295 CNS, 14.2 µM and 14.3 µM; in the test on NCI-H460 lung it was 16.2 µM and 19.5 µM.
With `Cc1cc(O)c(C(=O)CC2(O)C(=O)Nc3c(Cl)cc(Cl)cc32)c(=O)o1` (stereo unspecified), the TGI in the test with SF-268 CNS, in the test with IGROV1 ovarian, with M19-MEL melanoma, in the test on OVCAR-5 ovarian, with KM20L2 colon and in the test with NCI-H226 lung was over 100 µM in each case. Moreover, the TGI in the test on SK-MEL-5 melanoma, with M14 melanoma, in the test with SF-295 CNS and in the test on NCI-H460 lung was over 100 µM each time.
For the compound `Cn1nc(-c2ccccc2)c(N=[N+]=[N-])cc1=O`, the TGI in the test on SF-268 CNS, with IGROV1 ovarian, in the test with M19-MEL melanoma, with OVCAR-5 ovarian, with KM20L2 colon and with NCI-H226 lung was over 100 µM each time. Further, the TGI in the test with SK-MEL-5 melanoma, in the test with M14 melanoma, with SF-295 CNS and in the test with NCI-H460 lung was over 100 µM throughout.
In the case of `O=C(O)c1c2c(c(C(=O)O)c3ccccc13)-c1ccccc1-2`, the TGI in the test with SF-268 CNS, in the test on M19-MEL melanoma, in the test on OVCAR-5 ovarian, in the test on KM20L2 colon, in the test with NCI-H226 lung and in the test with M14 melanoma was over 100 µM in each case. Moreover, in the test on SF-295 CNS, the TGI was over 100 µM.
For `N/N=C(\CC1OC(=O)c2ccccc21)c1ccco1` (stereo unspecified), the TGI with SF-268 CNS, in the test with IGROV1 ovarian, with M19-MEL melanoma, with OVCAR-5 ovarian, with KM20L2 colon and in the test on NCI-H226 lung was over 100 µM throughout. Besides, the TGI with SK-MEL-5 melanoma, in the test on M14 melanoma, in the test on SF-295 CNS and with NCI-H460 lung was over 100 µM each time.
Regarding `COc1ccc(C(=O)C(c2ccc(OC)cc2)C2(O)C(=O)Nc3c(C)cc(Cl)cc32)cc1` (stereo unspecified), the TGI in the test with SF-268 CNS is over 100 µM; with IGROV1 ovarian it was over 100 µM; in the test on M19-MEL melanoma it was 44.2 µM; with OVCAR-5 ovarian, over 100 µM; in the test with KM20L2 colon it was over 100 µM; with NCI-H226 lung it was over 100 µM. Also, the TGI with M14 melanoma, in the test on SF-295 CNS and in the test on NCI-H460 lung was over 100 µM each time.
As to `COc1ccc(/C=C\c2cc(OC)c(OC)c(OC)c2)cc1OC(=O)C(N)CCC(=O)O` (stereo unspecified), the GI50 is 0.00415 µM and 0.000539 µM and 0.000824 µM in the test on IGROV1 ovarian; 1.51 µM in the test with KM20L2 colon; 0.000565 µM in the test on M14 melanoma; 0.00112 µM in the test with NCI-H460 lung. The TGI in the test on IGROV1 ovarian was over 100 µM; with M19-MEL melanoma, 67.3 µM; with OVCAR-5 ovarian, over 100 µM; in the test with KM20L2 colon it was 9.55 µM; with NCI-H226 lung it was 0.0415 µM.
Take `Cc1nc2c(=O)[nH]c(=O)n(C)c2[nH]c1=O`: the TGI in the test with SF-268 CNS, with IGROV1 ovarian, in the test with M19-MEL melanoma, in the test on OVCAR-5 ovarian, with KM20L2 colon and in the test on NCI-H226 lung was over 100 µM throughout. In addition, the TGI with SK-MEL-5 melanoma, in the test on M14 melanoma and in the test on NCI-H460 lung was over 100 µM each time.
